Where two headings read alike, the source gives them in different places.
Assays:
[1] = tested on: NS3 protease domain from GT 1a HCV-infected subjects in replicon shuttle vector; experiment: Replicon transient transfection EC50, NS3 protease domain from subjects cloned into shuttle vector, GT 1a; assay type: cell-based; conditions: for Fold Change: GT 1a; for EC50: Hepatitis C virus, GT1A
Text: (§1) Viral RNA was isolated from the plasma of HCV-infected patients at baseline (Day 1) and Day 4 by using an automated (Abbott m2000) or manual (QIAgen QIAamp Viral RNA Mini Kit) method. Amplicons containing the NS3-4A region were generated by RT-PCR, and PCR fragments containing the first 250 amino acids of NS3 were generated in a second round of PCR. The NS3 domain fragment was subsequently cloned into pJET (Fermentas) vector for clonal sequencing or digested with restriction enzymes and cloned into the replicon shuttle vector for phenotypic analysis. The lower limit of detection of the RT-PCR amplification method restricted the analysis to patient samples with HCV RNA levels above ˜500-1000 IU/mL.
Phenotypic analyses of clinical samples were also performed. For replicon transient transfection assays, RNA was transcribed from linearized plasmid DNA using a TranscriptAid T7 transcription kit (Fermentas) and 15 μg RNA was electroporated into Huh7-derived cells. […]

[2] = tested on: NS3 protease domain from GT 1b HCV-infected subjects in replicon shuttle vector; experiment: Replicon transient transfection EC50, NS3 protease domain from subjects cloned into shuttle vector, GT 1b; assay type: cell-based; conditions: for EC50: Hepatitis C virus, GT1B
Text: as §1
(§2) Phenotypic analyses of clinical samples were also performed. For replicon transient transfection assays, RNA was transcribed from linearized plasmid DNA using a TranscriptAid T7 transcription kit (Fermentas) and 15 μg RNA was electroporated into Huh7-derived cells. For EC50 determinations, various concentrations of Compound I were added to cells 1-2 hr after plating and the cells were cultured for 4 days, followed by measurement of luciferase activity with a luciferase assay system kit (Promega).

GT 1a replicon WT = experiment: HCV subgenomic replicon system, GT 1a WT; assay type: cell-based; conditions: Hepatitis C virus, GT1A
Description: as §2

GT 1a replicon R155G = experiment: HCV subgenomic replicon system, GT 1a R155G; assay type: cell-based
Description: as §2

GT 1a replicon R155K = experiment: HCV subgenomic replicon system, GT 1a R155K; assay type: cell-based
Description: as §2

GT 1a replicon D168A = experiment: HCV subgenomic replicon system, GT 1a D168A; assay type: cell-based
Description: as §2

GT 1a replicon D168V = experiment: HCV subgenomic replicon system, GT 1a D168V; assay type: cell-based
Description: as §2

GT 1b replicon WT = experiment: HCV subgenomic replicon system, GT 1b WT; assay type: cell-based; conditions: Hepatitis C virus, GT1B
Description: as §2

GT 1b replicon D168V = experiment: HCV subgenomic replicon system, GT 1b D168V; assay type: cell-based
Description: as §2

Aqueous solubility = assay type: physicochemical

## Cc1cnc(C(=O)N[C@H]2CCCCC/C=C\[C@@H]3C[C@@]3(C(=O)NS(=O)(=O)C3CC3)NC(=O)[C@@H]3C[C@@H](Oc4nc5ccccc5c5ccccc45)CN3C2=O)cn1 [Compound I, (2R,6S,13aS,14aR,16aS,Z)—N-(cyclopropylsulfonyl)-6-(5-methylpyrazine-2-carboxamido)-5,16-dioxo-2-(phenanthridin-6-yloxy)-1,2,3,5,6,7,8,9,10,11,13a,14,14a,15,16,16a-hexadecahydrocyclopropa[e]pyrrolo[1,2-a][1,4]diazacyclopentadecine-14a-carboxamide]
[1]; EC50 Day 4 vs Day 1, Subject A, 200/100 mg dose group
  Fold Change: 0.9
[1]; EC50 Day 4 vs Day 1, Subject B, 200/100 mg dose group
  Fold Change: 0.8
[1]; EC50 Day 4 vs Day 1, Subject C, 200/100 mg dose group
  Fold Change: 1.0
[1]; EC50 Day 4 vs Day 1, Subject D, 200/100 mg dose group
  Fold Change: 1.1
[1]; EC50 Day 4 vs Day 1, Subject N, 100/100 mg dose group
  Fold Change: 1.1
[1]; EC50 Day 4 vs Day 1, Subject V, 50/100 mg dose group
  Fold Change: 1.7
[1]; 24 h, read-out: EC50 Day 1, Subject A, GT 1a, 200/100 mg dose group, Day 1 (baseline) sample
  EC50: 1.31 nM
[1]; 24 h, read-out: EC50 Day 1, Subject B, GT 1a, 200/100 mg dose group, Day 1 (baseline) sample
  EC50: 1.36 nM
[1]; 24 h, read-out: EC50 Day 1, Subject C, GT 1a, 200/100 mg dose group, Day 1 (baseline) sample
  EC50: 3.11 nM
[1]; 24 h, read-out: EC50 Day 1, Subject D, GT 1a, 200/100 mg dose group, Day 1 (baseline) sample
  EC50: 2.42 nM
[1]; 24 h, read-out: EC50 Day 1, Subject E, GT 1a, 200/100 mg dose group, Day 1 (baseline) sample
  EC50: 0.58 nM
[1]; 24 h, read-out: EC50 Day 1, Subject G, GT 1a, 200/100 mg dose group, Day 1 (baseline) sample
  EC50: 2.68 nM
[1]; 24 h, read-out: EC50 Day 1, Subject H, GT 1a, 100/100 mg dose group, Day 1 (baseline) sample
  EC50: 1.55 nM
[1]; 24 h, read-out: EC50 Day 1, Subject I, GT 1a, 100/100 mg dose group, Day 1 (baseline) sample
  EC50: 1.43 nM
[1]; 24 h, read-out: EC50 Day 1, Subject L, GT 1a, 100/100 mg dose group, Day 1 (baseline) sample
  EC50: 2.8 nM
[1]; 24 h, read-out: EC50 Day 1, Subject M, GT 1a, 100/100 mg dose group, Day 1 (baseline) sample
  EC50: 0.91 nM
[1]; 24 h, read-out: EC50 Day 1, Subject N, GT 1a, 100/100 mg dose group, Day 1 (baseline) sample
  EC50: 0.58 nM
[1]; 24 h, read-out: EC50 Day 1, Subject P, GT 1a, 50/100 mg dose group, Day 1 (baseline) sample
  EC50: 0.81 nM
[1]; 24 h, read-out: EC50 Day 1, Subject Q, GT 1a, 50/100 mg dose group, Day 1 (baseline) sample
  EC50: 0.68 nM
[1]; 24 h, read-out: EC50 Day 1, Subject R, GT 1a, 50/100 mg dose group, Day 1 (baseline) sample
  EC50: 5.97 nM
[1]; 24 h, read-out: EC50 Day 1, Subject T, GT 1a, 50/100 mg dose group, Day 1 (baseline) sample
  EC50: 0.45 nM
[1]; 24 h, read-out: EC50 Day 1, Subject U, GT 1a, 50/100 mg dose group, Day 1 (baseline) sample
  EC50: 1.52 nM
[1]; 24 h, read-out: EC50 Day 1, Subject V, GT 1a, 50/100 mg dose group, Day 1 (baseline) sample
  EC50: 1.01 nM
[1]; 24 h, read-out: EC50 Day 1, Subject W, GT 1a, 50/100 mg dose group, Day 1 (baseline) sample
  EC50: 1.54 nM
[1]; 96 h, read-out: EC50 Day 4, Subject A, GT 1a, 200/100 mg dose group, Day 4 sample
  EC50: 1.14 nM
[1]; 96 h, read-out: EC50 Day 4, Subject B, GT 1a, 200/100 mg dose group, Day 4 sample
  EC50: 1.06 nM
[1]; 96 h, read-out: EC50 Day 4, Subject C, GT 1a, 200/100 mg dose group, Day 4 sample
  EC50: 3.23 nM
[1]; 96 h, read-out: EC50 Day 4, Subject D, GT 1a, 200/100 mg dose group, Day 4 sample
  EC50: 2.57 nM
[1]; 96 h, read-out: EC50 Day 4, Subject H, GT 1a, 100/100 mg dose group, Day 4 sample
  EC50: 10.2 nM
[1]; 96 h, read-out: EC50 Day 4, Subject L, GT 1a, 100/100 mg dose group, Day 4 sample
  EC50: 8.84 nM
[1]; 96 h, read-out: EC50 Day 4, Subject N, GT 1a, 100/100 mg dose group, Day 4 sample
  EC50: 0.64 nM
[1]; 96 h, read-out: EC50 Day 4, Subject P, GT 1a, 50/100 mg dose group, Day 4 sample
  EC50: 8.88 nM
[1]; 96 h, read-out: EC50 Day 4, Subject R, GT 1a, 50/100 mg dose group, Day 4 sample
  EC50: 68.7 nM
[1]; 96 h, read-out: EC50 Day 4, Subject U, GT 1a, 50/100 mg dose group, Day 4 sample
  EC50: 11.5 nM
[1]; 96 h, read-out: EC50 Day 4, Subject V, GT 1a, 50/100 mg dose group, Day 4 sample
  EC50: 1.69 nM
[1]; 96 h, read-out: EC50 Day 4, Subject W, GT 1a, 50/100 mg dose group, Day 4 sample
  EC50: 9.78 nM
[1]; subjects with Day 4 samples amplified, includes GT 1b subject J
  Subjects with increased EC50 values at day 4 relative to baseline: 7 of the 13
[2]; 24 h, read-out: EC50 Day 1, Subject F, GT 1b, 200/100 mg dose group, Day 1 (baseline) sample
  EC50: 0.04 nM
[2]; 24 h, read-out: EC50 Day 1, Subject J, GT 1b, 100/100 mg dose group, Day 1 (baseline) sample
  EC50: 0.04 nM
[2]; 24 h, read-out: EC50 Day 1, Subject K, GT 1b, 100/100 mg dose group, Day 1 (baseline) sample
  EC50: 0.07 nM
[2]; 24 h, read-out: EC50 Day 1, Subject O, GT 1b, 100/100 mg dose group, Day 1 (baseline) sample
  EC50: 0.05 nM
[2]; 24 h, read-out: EC50 Day 1, Subject S, GT 1b, 50/100 mg dose group, Day 1 (baseline) sample
  EC50: 0.06 nM
[2]; 96 h, read-out: EC50 Day 4, Subject J, GT 1b, 100/100 mg dose group, Day 4 sample
  EC50: 15.5 nM
[2]; single GT 1b subject (J), 100/100 mg dose group
  EC50 shift at day 4 relative to baseline: 368 fold
GT 1a replicon WT
  EC50: 1.19 nM
GT 1a replicon R155G; EC50 of GT 1a R155G vs GT 1a WT
  Fold Change: 16
GT 1a replicon R155G; Hepatitis C virus, GT1A
  EC50: 19.2 nM
GT 1a replicon R155K; EC50 of GT 1a R155K vs GT 1a WT
  Fold Change: 43
GT 1a replicon R155K; Hepatitis C virus, GT1A
  EC50: 51.5 nM
GT 1a replicon D168A; EC50 of GT 1a D168A vs GT 1a WT
  Fold Change: 59
GT 1a replicon D168A; Hepatitis C virus, GT1A
  EC50: 70.4 nM
GT 1a replicon D168V; EC50 of GT 1a D168V vs GT 1a WT
  Fold Change: 115
GT 1a replicon D168V; Hepatitis C virus, GT1A
  EC50: 136 nM
GT 1b replicon WT
  EC50: 0.07 nM
GT 1b replicon D168V; EC50 of GT 1b D168V vs GT 1b WT
  Fold Change: 257
GT 1b replicon D168V; Hepatitis C virus, GT1B
  EC50: 17.5 nM
Aqueous solubility
  Aqueous solubility: low aqueous solubility

Source: patent US9044480B1, “Compositions and methods for treating HCV” (priority 2011, dated 2015)
